In patent US8729082B2, “Substituted imidazoquinoxalines” (Bayer Intellectual Property GmbH, priority 2009, dated 2014):

Molecular target: T1, human kinase Mps-1 (Homo sapiens, UniProt P33981)
T1 construct: N-terminally GST-tagged human full length recombinant Mps-1 kinase; purchased Invitrogen, Karslruhe, Germany PV4071
T1 sequence (P33981 1-857): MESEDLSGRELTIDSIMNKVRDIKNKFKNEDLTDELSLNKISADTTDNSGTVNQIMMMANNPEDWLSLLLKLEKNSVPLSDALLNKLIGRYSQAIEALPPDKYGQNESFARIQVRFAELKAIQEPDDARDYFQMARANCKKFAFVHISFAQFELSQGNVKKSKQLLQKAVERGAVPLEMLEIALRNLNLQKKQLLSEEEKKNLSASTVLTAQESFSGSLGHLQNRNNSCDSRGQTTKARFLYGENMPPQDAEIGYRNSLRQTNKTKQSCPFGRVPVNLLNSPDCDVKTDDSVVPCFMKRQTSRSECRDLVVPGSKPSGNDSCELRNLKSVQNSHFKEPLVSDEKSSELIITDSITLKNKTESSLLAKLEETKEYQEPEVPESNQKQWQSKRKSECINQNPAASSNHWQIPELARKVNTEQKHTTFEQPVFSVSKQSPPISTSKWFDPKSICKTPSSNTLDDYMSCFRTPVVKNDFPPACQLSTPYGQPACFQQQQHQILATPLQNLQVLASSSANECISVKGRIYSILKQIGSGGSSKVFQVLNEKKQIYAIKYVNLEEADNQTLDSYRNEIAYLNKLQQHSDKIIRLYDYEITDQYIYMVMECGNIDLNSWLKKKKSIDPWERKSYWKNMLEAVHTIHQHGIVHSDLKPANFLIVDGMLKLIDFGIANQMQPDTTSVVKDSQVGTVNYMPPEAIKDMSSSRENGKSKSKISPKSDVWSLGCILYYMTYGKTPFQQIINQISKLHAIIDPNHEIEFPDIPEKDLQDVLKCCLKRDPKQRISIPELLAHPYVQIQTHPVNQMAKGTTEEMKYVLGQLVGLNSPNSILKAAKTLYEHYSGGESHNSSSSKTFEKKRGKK
Assay: Mps-1 kinase assay (HTRF)
Format: biochemical
Conditions: lowATP; mean; read-out: Mps1 lowATP mean IC50
Summary of the method: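 HTRF readout: EDTA-stopped reactions incubated 1 h with europium anti-phospho(Ser/Thr) antibody and streptavidin-XLent, emission ratio 665/620 nm after 350 nm excitation. Kinase step: compound pre-bound 15 min to ~1 nM GST-Mps-1, then 60 min at 22 °C with ATP and biotin-peptide substrate; inhibition scaled between no-inhibitor (0%) and no-enzyme (100%) controls.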

| SMILES | IC50 [nM] |
| --- | --- |
| O=C(NC1CC1)c1ccc(-c2cnc3c(NCCCN4CCCC4=O)nc4cc(F)c(F)cc4n23)cc1Cl [Example 2-125, 2-chloro-N-cyclopropyl-4-(7,8-difluoro-4-{[3-(2-oxopyrrolidin-1-yl)propyl]amino}imidazo[1,2-a]quinoxalin-1-yl)benzamide] | 9640 |
| COCCNc1nc2cc(F)c(F)cc2n2c(-c3ccc(C(=O)NC4CC4)c(Cl)c3)cnc12 [Example 2-126, 2-chloro-N-cyclopropyl-4-{7,8-difluoro-4-[(2-methoxyethyl)amino]imidazo[1,2-a]quinoxalin-1-yl}benzamide] | 4890 |
| O=C(NC1CC1)c1ccc(-c2cnc3c(NCc4ccccc4F)nc4cc(F)c(F)cc4n23)cc1Cl [Example 2-127, 2-chloro-N-cyclopropyl-4-{7,8-difluoro-4-[(2-fluorobenzyl)amino]imidazo[1,2-a]quinoxalin-1-yl}benzamide] | 3810 |
| O=C(NC1CC1)c1ccc(-c2cnc3c(NCc4ccc(F)cc4)nc4cc(F)c(F)cc4n23)cc1Cl [Example 2-128, 2-chloro-N-cyclopropyl-4-{7,8-difluoro-4-[(4-fluorobenzyl)amino]imidazo[1,2-a]quinoxalin-1-yl}benzamide] | 17300 |
| O=C(NC1CC1)c1ccc(-c2cnc3c(NCCCCO)nc4cc(F)c(F)cc4n23)cc1Cl [Example 2-129, 2-chloro-N-cyclopropyl-4-{7,8-difluoro-4-[(4-hydroxybutyl)amino]imidazo[1,2-a]quinoxalin-1-yl}benzamide] | 2260 |
| O=C(NC1CC1)c1ccc(-c2cnc3c(NCCCO)nc4cc(F)c(F)cc4n23)cc1Cl [Example 2-130, 2-chloro-N-cyclopropyl-4-{7,8-difluoro-4-[(3-hydroxypropyl)amino]imidazo[1,2-a]quinoxalin-1-yl}benzamide] | 3130 |
| CCCCNc1nc2cc(F)c(F)cc2n2c(-c3ccc(C(=O)NC4CC4)c(Cl)c3)cnc12 [Example 2-131, 4-[4-(butylamino)-7,8-difluoroimidazo[1,2-a]quinoxalin-1-yl]-2-chloro-N-cyclopropylbenzamide] | 3730 |
| CC(=O)NCCNc1nc2cc(F)c(F)cc2n2c(-c3ccc(C(=O)NC4CC4)c(Cl)c3)cnc12 [Example 2-132, 4-(4-{[2-(acetylamino)ethyl]amino}-7,8-difluoroimidazo[1,2-a]quinoxalin-1-yl)-2-chloro-N-cyclopropylbenzamide] | 7740 |
| O=C(NC1CC1)c1ccc(-c2cnc3c(NCCCn4ccnc4)nc4cc(F)c(F)cc4n23)cc1Cl [Example 2-133, 2-chloro-N-cyclopropyl-4-(7,8-difluoro-4-{[3-(1H-imidazol-1-yl)propyl]amino}imidazo[1,2-a]quinoxalin-1-yl)benzamide] | 3290 |
| O=C(NC1CC1)c1ccc(-c2cnc3c(NCc4ccccn4)nc4cc(F)c(F)cc4n23)cc1Cl [Example 2-134, 2-chloro-N-cyclopropyl-4-{7,8-difluoro-4-[(pyridin-2-ylmethyl)amino]imidazo[1,2-a]quinoxalin-1-yl}benzamide] | 6700 |
| O=C(NC1CC1)c1ccc(-c2cnc3c(NCc4cccnc4)nc4cc(F)c(F)cc4n23)cc1Cl [Example 2-135, 2-chloro-N-cyclopropyl-4-{7,8-difluoro-4-[(pyridin-3-ylmethyl)amino]imidazo[1,2-a]quinoxalin-1-yl}benzamide] | 1580 |
| O=C(NC1CC1)c1ccc(-c2cnc3c(NCc4ccncc4)nc4cc(F)c(F)cc4n23)cc1Cl [Example 2-136, 2-chloro-N-cyclopropyl-4-{7,8-difluoro-4-[(pyridin-4-ylmethyl)amino]imidazo[1,2-a]quinoxalin-1-yl}benzamide] | 1710 |
| CC(C)CNc1nc2cc(F)c(F)cc2n2c(-c3ccc(C(=O)NC4CC4)c(Cl)c3)cnc12 [Example 2-137, 2-chloro-N-cyclopropyl-4-{7,8-difluoro-4-[(2-methylpropyl)amino]imidazo[1,2-a]quinoxalin-1-yl}benzamide] | 391 |
| NC(=O)CCNc1nc2cc(F)c(F)cc2n2c(-c3ccc(C(=O)NC4CC4)c(Cl)c3)cnc12 [Example 2-138, 4-{4-[(3-amino-3-oxopropyl)amino]-7,8-difluoroimidazo[1,2-a]quinoxalin-1-yl}-2-chloro-N-cyclopropylbenzamide] | 11200 |
| COCCCNc1nc2cc(F)c(F)cc2n2c(-c3ccc(C(=O)NC4CC4)c(Cl)c3)cnc12 [Example 2-139, 2-chloro-N-cyclopropyl-4-{7,8-difluoro-4-[(3-methoxypropyl)amino]imidazo[1,2-a]quinoxalin-1-yl}benzamide] | 3850 |
| CC(C)(C)OC(=O)NCCCNc1nc2cc(F)c(F)cc2n2c(-c3ccc(C(=O)NC4CC4)c(Cl)c3)cnc12 [Example 2-140, tert-butyl [3-({1-[3-chloro-4-(cyclopropylcarbamoyl)phenyl]-7,8-difluoroimidazo[1,2-a]quinoxalin-4-yl}amino)propyl]carbamate] | 3410 |
| Cn1ccc(CNc2nc3cc(F)c(F)cc3n3c(-c4ccc(C(=O)NC5CC5)c(Cl)c4)cnc23)n1 [Example 2-141, 2-chloro-N-cyclopropyl-4-(7,8-difluoro-4-{[(1-methyl-1H-pyrazol-3-yl)methyl]amino}imidazo[1,2-a]quinoxalin-1-yl)benzamide] | 4450 |
| Cn1cc(CNc2nc3cc(F)c(F)cc3n3c(-c4ccc(C(=O)NC5CC5)c(Cl)c4)cnc23)cn1 [Example 2-142, 2-chloro-N-cyclopropyl-4-(7,8-difluoro-4-{[(1-methyl-1H-pyrazol-4-yl)methyl]amino}imidazo[1,2-a]quinoxalin-1-yl)benzamide] | 2280 |
| NS(=O)(=O)CCNc1nc2cc(F)c(F)cc2n2c(-c3ccc(C(=O)NC4CC4)c(Cl)c3)cnc12 [Example 2-143, 2-chloro-N-cyclopropyl-4-{7,8-difluoro-4-[(2-sulfamoylethyl)amino]imidazo[1,2-a]quinoxalin-1-yl}benzamide] | 1240 |
| CCCNc1nc2cc(C)c(C)cc2n2c(-c3ccc(C(=O)NC4CC4)cc3)cnc12 [Example 2-144, N-cyclopropyl-4-[7,8-dimethyl-4-(propylamino)imidazo[1,2-a]quinoxalin-1-yl]benzamide] | 4.15 |
| Cc1cc2nc(NCCC(C)C)c3ncc(-c4ccc(C(=O)NC5CC5)cc4)n3c2cc1C [Example 2-145, N-cyclopropyl-4-{7,8-dimethyl-4-[(3-methylbutyl)amino]imidazo[1,2-a]quinoxalin-1-yl}benzamide] | 5.61 |
| Cc1cc2nc(NCCCCO)c3ncc(-c4ccc(C(=O)NC5CC5)cc4)n3c2cc1C [Example 2-146, N-cyclopropyl-4-{4-[(4-hydroxybutyl)amino]-7,8-dimethylimidazo[1,2-a]quinoxalin-1-yl}benzamide] | 2.83 |
| CCNc1nc2cc(C)c(C)cc2n2c(-c3ccc(C(=O)NC4CC4)cc3)cnc12 [Example 2-147, N-cyclopropyl-4-[4-(ethylamino)-7,8-dimethylimidazo[1,2-a]quinoxalin-1-yl]benzamide] | 4.5 |
| Cc1cc2nc(NCCCO)c3ncc(-c4ccc(C(=O)NC5CC5)cc4)n3c2cc1C [Example 2-148, N-cyclopropyl-4-{4-[(3-hydroxypropyl)amino]-7,8-dimethylimidazo[1,2-a]quinoxalin-1-yl}benzamide] | 5.92 |
| CCCCNc1nc2cc(C)c(C)cc2n2c(-c3ccc(C(=O)NC4CC4)cc3)cnc12 [Example 2-149, 4-[4-(butylamino)-7,8-dimethylimidazo[1,2-a]quinoxalin-1-yl]-N-cyclopropylbenzamide] | 2.86 |
| Cc1cc2nc(NCC3CC3)c3ncc(-c4ccc(C(=O)NC5CC5)cc4)n3c2cc1C [Example 2-150, N-cyclopropyl-4-{4-[(cyclopropylmethyl)amino]-7,8-dimethylimidazo[1,2-a]quinoxalin-1-yl}benzamide] | 2.64 |
| Cc1cc2nc(NCc3ccccn3)c3ncc(-c4ccc(C(=O)NC5CC5)cc4)n3c2cc1C [Example 2-151, N-cyclopropyl-4-{7,8-dimethyl-4-[(pyridin-2-ylmethyl)amino]imidazo[1,2-a]quinoxalin-1-yl}benzamide] | 19.5 |
| Cc1cc2nc(NCc3cccnc3)c3ncc(-c4ccc(C(=O)NC5CC5)cc4)n3c2cc1C [Example 2-152, N-cyclopropyl-4-{7,8-dimethyl-4-[(pyridin-3-ylmethyl)amino]imidazo[1,2-a]quinoxalin-1-yl}benzamide] | 6.01 |
| Cc1cc2nc(NCc3ccco3)c3ncc(-c4ccc(C(=O)NC5CC5)cc4)n3c2cc1C [Example 2-153, N-cyclopropyl-4-{4-[(furan-2-ylmethyl)amino]-7,8-dimethylimidazo[1,2-a]quinoxalin-1-yl}benzamide] | 5.22 |
